Test results: patent US9771378B2 (Denali Therapeutics, Inc., priority 2014, dated 2017)

These compounds were tested on Aβ42 (human neuroglioma H4 cells expressing human wild type APP751) (assay: In vitro cell screening assay with sandwich ELISA quantification of Aβ42 peptide). Conditions: H4 cells stably expressing human wild type APP751; Pro293 chemically defined medium; compounds 0.003-10 μM; incubated overnight (16-18 h); supernatant Aβ42 by sandwich ELISA; normalized to DMSO and DAPT; read-out: Aβ42 H4 Prot Fre IC50.
Assay type: cell-based
Protocol: Human neuroglioma H4 cells were transfected with a pcDNA3.1 plasmid expressing human wild type APP751 cDNA and a stable cell line was generated using G418 selection. Cells are plated at 15,000 cells/well in Costar 96-well plates and placed at 37° C. and 5% CO2. Six hours after plating, cells are washed three times with Pro293™ chemically defined medium, followed by addition of compounds (0.003-10 μM, final DMSO concentration of 0.33%). Plates were incubated overnight (16-18 h) and supernatant was removed for quantification of AP peptides by sandwich ELISA. Cytotoxicity was evaluated using Cell-Titer 96W AQueous One Solution Cell Proliferation Assay according to the manufacturer's protocol.
ELISA Measurements of Aβ Peptides
Aβ peptide levels were quantified by sandwich ELISA. 96-well plates are coated with C-terminal specific Aβ antibodies recognizing either Aβ37, Aβ38, Aβ40, Aβ42, Aβ43 or a N-terminal specific Aβ antibody to detect Aβ 1-x. Plates are then blocked overnight at 4° C. with 1% bovine serum albumin (BSA) in PBS-T. Plates are washed and 100 μl of cultured cell supernatant or synthetic Aβ peptide standards and a detection antibody (4G8-HRP) are applied to the blocked plate and incubated overnight at 4° C. The next day, wells are washed before the addition […] of detection substrate (TMB peroxidase). Plates are then read for absorbance at 450 nm on a Molecular Devices SpectraMax M5e Microplate Reader.
IC50 values were calculated from values reported as percent of DMSO controls using nonlinear regression, based on a sigmoidal dose-response (variable slope) model. GraphPAD software from Prism used for calculation.
In the case of `Cc1cn(-c2ccc(Nc3ncc4c(n3)N(C)C(c3cc(F)cc(F)c3)CO4)cc2)cn1` (racemic) [Example 23], the IC50 is reported as 37.9 nM.
Compound `Cc1cc(-c2ccc(Nc3ncc4c(n3)N(C)C(c3ccccc3)CO4)cc2)ccn1` (racemic) [Example 24] has an IC50 of 155 nM.
`Cc1cn(-c2ccc(Nc3ncc4c(n3)N(C)C(c3ccccc3)CO4)cc2F)cn1` (racemic) [Example 25] gave an IC50 of 101 nM.
With `Cc1cn(-c2ccc(Nc3ncc4c(n3)N(C)C(c3ccccc3)CO4)cc2)cn1` (racemic) [Example 26] the IC50 was 121 nM.
For `Cc1cc(-c2ccc(Nc3ncc4c(n3)N(C)C(c3ccccc3)CO4)cc2F)ccn1` (racemic) [Example 27], the IC50 was 374 nM.
`Cc1cc(-c2ccc(Nc3ncc4c(n3)N(C)C(c3cc(F)cc(F)c3)CO4)cc2)ccn1` (racemic) [Example 28] was tested, and the IC50 was 90 nM.
In the case of `Cc1cc(-c2ccc(Nc3ncc4c(n3)N(C)C(c3ccccc3C)CO4)cc2)ccn1` (racemic) [Example 29], the IC50 is reported as 297 nM.
Compound `COc1cc(Nc2ncc3c(n2)N(C)C(c2cc(F)cc(F)c2)CO3)ccc1-n1cnc(C)c1` (racemic) [Example 30] has an IC50 of 18 nM.
Work on `COc1cc(Nc2ncc3c(n2)N(C)C(c2ccccc2C)CO3)ccc1-n1cnc(C)c1` (racemic) [Example 31] yielded an IC50 of 25 nM.
Work on `Cc1cc(-c2ccc(Nc3ncc4c(n3)N(C)C(c3ccccc3C)CO4)cc2F)ccn1` (racemic) [Example 32] yielded an IC50 of 168 nM.
`Cc1cn(-c2ccc(Nc3ncc4c(n3)N(C)C(c3cc(F)cc(F)c3)CO4)cc2F)cn1` (racemic) [Example 33] gave an IC50 of 38 nM.
With `Cc1cn(-c2ccc(Nc3ncc4c(n3)N(C)C(c3ccccc3C)CO4)cc2F)cn1` (racemic) [Example 34] the IC50 was 44 nM.
`COc1cc(Nc2ncc3c(n2)N(C)C(c2ccccc2C)CO3)ccc1-c1ccnc(C)c1` (racemic) [Example 35] was tested, and the IC50 was 87 nM.
`Cc1cc(-c2ccc(Nc3ncc4c(n3)N(C)C(c3cc(F)c(F)c(F)c3)CO4)cc2F)ccn1` (racemic) [Example 36] was tested, and the IC50 was 162 nM.
Work on `Cc1cc(-c2ccc(Nc3ncc4c(n3)N(C)C(c3cc(F)c(F)c(F)c3)CO4)cc2)ccn1` (racemic) [Example 37] yielded an IC50 of 103 nM.
`Cc1cn(-c2ccc(Nc3ncc4c(n3)N(C)C(c3cc(F)c(F)c(F)c3)CO4)cc2F)cn1` (racemic) [Example 38] gave an IC50 of 32 nM.
`COc1cc(Nc2ncc3c(n2)N(C)C(c2cc(F)c(F)c(F)c2)CO3)ccc1-c1ccnc(C)c1` (racemic) [Example 39] gave an IC50 of 35 nM.
`COc1cc(Nc2ncc3c(n2)N(C)C(c2cc(F)c(F)c(F)c2)CO3)ccc1-n1cnc(C)c1` (racemic) [Example 40] gave an IC50 of 20 nM.
Compound `Cc1cc(-c2ccc(Nc3ncc4c(n3)N(C)C(c3cc(F)cc(F)c3)CO4)cc2F)ccn1` (racemic) [Example 41] has an IC50 of 63 nM.
Work on `COc1cc(Nc2ncc3c(n2)N(C)C(c2cc(F)cc(F)c2)CO3)ccc1-c1ccnc(C)c1` (racemic) [Example 42] yielded an IC50 of 47 nM.
In the case of `Cc1cn(-c2ccc(Nc3ncc4c(n3)N(C)C(c3ccccc3C)CO4)cc2)cn1` (racemic) [Example 43], the IC50 is reported as 216 nM.
With `Cc1cn(-c2ccc(Nc3ncc4c(n3)N(C)C(c3cc(F)c(F)c(F)c3)CO4)cc2)cn1` (racemic) [Example 44] the IC50 was 75 nM.
Compound `COc1cc(Nc2ncc3c(n2)N(C)C(c2ccccc2)CO3)ccc1-n1cnc(C)c1` (racemic) [Example 45, N-(3-methoxy-4-(4-methyl-1H-imidazol-1-yl)phenyl)-8-methyl-7-phenyl-7,8-dihydro-6H-pyrimido[5,4-b][1,4]oxazin-2-amine] has an IC50 of 58 nM.
In the case of `COc1cc(Nc2ncc3c(n2)N(C)C(c2ccccc2)CO3)ccc1-c1ccnc(C)c1` (racemic) [Example 46, N-(3-methoxy-4-(2-methylpyridin-4-yl)phenyl)-8-methyl-7-phenyl-7,8-dihydro-6H-pyrimido[5,4-b][1,4]oxazin-2-amine], the IC50 is reported as 48 nM.
`COc1cc(Nc2ncc3c(n2)N(C)C(Cc2ccccc2)CO3)ccc1-n1cnc(C)c1` (racemic) [Example 47] was tested, and the IC50 was 41 nM.
In the case of `COc1cc(Nc2ncc3c(n2)N(C)C(c2ccc(F)cc2F)CO3)ccc1-n1cnc(C)c1` (racemic) [Example 48], the IC50 is reported as 36 nM.
Work on `COc1cc(Nc2ncc3c(n2)N(C)C(c2ccc(F)cc2)CO3)ccc1-n1cnc(C)c1` (racemic) [Example 49] yielded an IC50 of 36 nM.
Work on `COc1cc(Nc2ncc3c(n2)N(C)C(C2CCOCC2)CO3)ccc1-n1cnc(C)c1` (racemic) [Example 50] yielded an IC50 of 173 nM.
In the case of `COc1cc(Nc2ncc3c(n2)N(C)C(c2ccccc2Cl)CO3)ccc1-n1cnc(C)c1` (racemic) [Example 51], the IC50 is reported as 32 nM.
For `COc1cc(Nc2ncc3c(n2)N(C)C(C)CO3)ccc1-n1cnc(C)c1` (racemic) [Example 52], the IC50 was 205 nM.
`COc1cc(Nc2ncc3c(n2)N(C)C(c2ccc(F)cc2Cl)CO3)ccc1-n1cnc(C)c1` (racemic) [Example 53] showed an IC50 of 37 nM.
`COc1cc(Nc2ncc3c(n2)N(C)C(c2ccc(F)cc2C)CO3)ccc1-n1cnc(C)c1` (racemic) [Example 54] showed an IC50 of 75 nM.
With `COc1cc(Nc2ncc3c(n2)N(C)C(c2ccccc2C(F)(F)F)CO3)ccc1-n1cnc(C)c1` (racemic) [Example 55] the IC50 was 37 nM.
`COc1ccc(C2COc3cnc(Nc4ccc(-n5cnc(C)c5)c(OC)c4)nc3N2C)c(Cl)c1` (racemic) [Example 86] gave an IC50 of 38 nM.
Work on `COc1ccc(Cl)c(C2COc3cnc(Nc4ccc(-n5cnc(C)c5)c(OC)c4)nc3N2C)c1` (racemic) [Example 87] yielded an IC50 of 42 nM.
Work on `COc1cc(Nc2ncc3c(n2)N(C)C(c2cc(C(F)(F)F)ccc2Cl)CO3)ccc1-n1cnc(C)c1` (racemic) [Example 88] yielded an IC50 of 39 nM.
`COc1cc(Cl)c(C2COc3cnc(Nc4ccc(-n5cnc(C)c5)c(OC)c4)nc3N2C)cc1Cl` (racemic) [Example 89] gave an IC50 of 23 nM.
Work on `COc1ccc(C)c(C2COc3cnc(Nc4ccc(-n5cnc(C)c5)c(OC)c4)nc3N2C)c1` (racemic) [Example 90] yielded an IC50 of 27 nM.
For `COc1cc(Nc2ncc3c(n2)N(C)C(c2ccc(C(F)(F)F)cc2C(F)(F)F)CO3)ccc1-n1cnc(C)c1` (racemic) [Example 91], the IC50 was 110 nM.
In the case of `COc1ccc(C2COc3cnc(Nc4ccc(-n5cnc(C)c5)c(OC)c4)nc3N2C)c(C)c1` (racemic) [Example 92], the IC50 is reported as 27 nM.
`COc1nc(Nc2ncc3c(n2)N(C)C(C)CO3)ccc1-n1cnc(C)c1` (racemic) [Example 190] gave an IC50 greater than 3000 nM.
In the case of `COc1nc(Nc2ncc3c(n2)N(C)C(c2cc(F)c(F)cc2F)CO3)ccc1-n1cnc(C)c1` (racemic) [Example 191], the IC50 is reported as 2250 nM.
In the case of `COc1nc(Nc2ncc3c(n2)N(C)C(C)CO3)ccc1-c1cnn(C)c1` (racemic) [Example 195], the IC50 is reported as greater than 3000 nM.
`COc1nc(Nc2ncc3c(n2)N(C)C(c2cc(F)c(F)c(F)c2)CO3)c(F)cc1-c1cnn(C)c1` (racemic) [Example 196] showed an IC50 of 544 nM.
Work on `COc1nc(Nc2ncc3c(n2)N(C)C(c2cc(F)cc(F)c2)CO3)c(F)cc1-c1cnn(C)c1` (racemic) [Example 197] yielded an IC50 greater than 3000 nM.
Compound `COc1cc(Nc2ncc3c(n2)N(C)C(C)CO3)ncc1-n1cnc(C)c1` (racemic) [Example 234] has an IC50 of 1770 nM.
`Cc1cn(-c2ccc(Nc3ncc4c(n3)N(C)C(c3cc(F)c(F)cc3C(F)(F)F)CO4)cc2F)cn1` (single isomer, unassigned) [Example 198A] gave an IC50 of 1110 nM.
`Cc1cn(-c2ccc(Nc3ncc4c(n3)N(C)C(c3cc(F)c(F)cc3C(F)(F)F)CO4)cc2F)cn1` (single isomer, unassigned) [Example 198B] showed an IC50 of 101 nM.
